Reference: patent US7291638B2, “3-amido-1,2-benzoisoxazole derivatives, process for preparation, and use thereof” (Dongwha Pharm. Ind. Co., Ltd., priority 2001, dated 2007)
Like-named read-outs stand apart in the source and are kept apart here.

Legend:
[1] = system: osteoporotic rat induced by ovariectomy; experiment: Area ratio of trabecular bone in osteoporotic rats induced by ovariectomy; assay type: in vivo; settings: for area ratio of trabecular bone, Femur Left / area ratio of trabecular bone, Femur Right / area ratio of trabecular bone, Tibia Left / area ratio of trabecular bone, Tibia Right: ovariectomized rats, 40 days
Experimental: (§1) To investigate therapeutic value of the osteoporosis to ovariectomized rats, change in the number of osteoclast cell and area ratio of trabecular bone (volume %) were measured.
(§2) After 25 female white rats purchased from Chales River (Japan) were adjusted to a new environment, temperature of 20˜25° C. and relative humidity of 30˜35%. The 5 rats were positioned in a hutch, feed (Sam Yang corporation) and water were supplied to the rats. 20 rats had the operation for the removal of an ovary, 5 rats had the Sham operation for opening and suturing the abdominal cavity, used as Sham control group.
(§3) Also, to compare drug efficacies of EXAMPLE and the compound of formula 2, 5 rats removed of the ovary were used as experimental group. The compound of formula 2 was dissolved in injectable distilled water and administered to the rats orally in an amount of 100 mg per kg for 40 days from 10 weeks after ovariectomy or Sham-operation, using oral sonde. 5 ml/kg was administered to the rats. […] 5 ml/kg was administered to the rats.
(§4) After administration terminated, the femur and tibia were removed from the animals, and fixed in 10% neutral formalin. The fixed tissue was decalcified in a solution (solution mixed 24.4% formic acid and 0.5 N sodium hydroxide) for 5 days, embedded in paraffin and 3˜4 μm sections were prepared. After that prepared section were dyed by hematoxylin-eosin.
Also, the area ratio of trabecular bone was calculated at the section of the femur and tibia respectively, through the equation.

[2] = Pharmacokinetics test in rats (oral; plasma concentration of the compound of formula 2 by HPLC); assay type: in vivo, rat
Experimental: Male white rats (Sprague-Dawley) having body weights of 230˜260 g were used, 3˜4 rats were tested for a drug. Rats were fasted for 18˜20 hours before the drug was administered. The weight of rat was measured on the day of the experiment, the drug was administered orally to the rats according to dosage. After administration, rats were lightly anesthetized with diethyl ether. At […], 0.17, 0.5, 1.0, 1.5, 3.0, 5.0, 8.0 hours, the blood was collected from orbit vein of the rats by canulation. The collected blood was centrifuged, and the plasma was isolated. To determine concentration of the drug in plasma, HPLC was carried out as follows. Acetonitrile containing internal standard substance and the isolated plasma was mixed in the same amount, followed by centrifuging at 12,000 rpm. The supernatent was applied to HPLC, bioavailability of the compounds prepared in EXAMPLES was measured by analyzing a plasma concentration of the compound of formula 2.
Pharmacokinetics parameters were measured by noncompartmental analysis, using WinNolin (ver. 1.0 Scientific Consulting Inc., USA). Time and maximum plasma concentration were registered by observed data, half life was calculated by linear regression analysis of terminal elimination phase.

osteoclast cell = experiment: Change in the number of osteoclast cell in osteoporotic rats induced by ovariectomy; assay type: in vivo, rat; settings: for osteoclast cells inducing the osteolysis (in words): osteoporotic rats induced by ovariectomy, group administered the drug; for number of osteoclast cell, Tibia Left / number of osteoclast cell, Tibia Right / number of osteoclast cell, femur Left / number of osteoclast cell, femur Right: ovariectomized rats, cells within 1 mm^2 area, 10 sections, mean±SD, PEG 100 solution, intramuscular injection, 40 days; for number of osteoclast cell, femur Right: same concentration as formula 2 (100 mg per kg)
Experimental: as §1, §2, §3, §4
Change in the number of osteoclast cell was calculated by mean±standard deviation through the number of the osteoclast cell existed within 1 mm^2 area at the 10 sections. The experiment group administered was compared with the control group not and Sham group.

[3] = injectable distilled water, oral, 100 mg per kg
[4] = male Sprague-Dawley rats, 50 mg/kg, vehicle DW (distilled water)
[5] = male Sprague-Dawley rats, 50 mg/kg, vehicle DW (distilled water), analyte compound of formula 2 in plasma
[6] = male Sprague-Dawley rats, 100 mg/kg, vehicle DW (distilled water)
[7] = osteoporotic rats induced by ovariectomy
[8] = PEG 100 solution, intramuscular injection

## COc1cc(C(=O)N(C(C)C)C(C)C)ccc1OCCCCOc1ccc2c(N)noc2c1 [Formula 2, reference compound]
[1]; [3]
  area ratio of trabecular bone, Femur Left: 31.38 ± 7.88*.^## volume %
  area ratio of trabecular bone, Femur Right: 31.69 ± 9.83 volume %
  area ratio of trabecular bone, Tibia Left: 28.22 ± 5.54 volume %
  area ratio of trabecular bone, Tibia Right: 29.35 ± 11.37 volume %
[2]; male Sprague-Dawley rats, 50 mg/kg, vehicle DMSO
  Total AUC: 190 ng·h/mL
[2]; male, Sprague-Dawley, rat, plasma, po, 50 mg/kg, male Sprague-Dawley rats, 50 mg/kg, vehicle DMSO, read-out: Cmax
  Cmax: 470 ng/mL
[2]; male, Sprague-Dawley, rat, plasma, po, 50 mg/kg, male Sprague-Dawley rats, 50 mg/kg, vehicle DMSO, read-out: Tmax
  Tmax: 10.2 min
[2]; male, Sprague-Dawley, rat, plasma, po, 50 mg/kg, male Sprague-Dawley rats, 50 mg/kg, vehicle DW + T (distilled water + tween 80), read-out: Cmax
  Cmax: 80 ng/mL
[2]; male, Sprague-Dawley, rat, plasma, po, 50 mg/kg, male Sprague-Dawley rats, 50 mg/kg, vehicle DW + T (distilled water + tween 80), read-out: Tmax
  Tmax: 90 min
[2]; rat, 50 mg per kg, dissolved in distilled water and tween 80
  drug absorption (in words): no drug was absorbed
[2]; rat, plasma, male Sprague-Dawley rats, 50 mg/kg, vehicle DMSO
  half-life: 19.2 min

## COc1cc(C(=O)N(C(C)C)C(C)C)ccc1OCCCCOc1ccc2onc(NC(=O)[C@@H](N)C(C)C)c2c1.CS(=O)(=O)O [Example 4, (1S)-1-{5-[4-(4-diisopropylcarbamoyl-2-methoxy-phenoxy)-butoxy]-benzo[d-]isoxazole-3-ylcarbamoyl)-2-methyl-propyl-ammonium methane sulfonic acid salt]
[2]; [4]
  T1/2: 66.6 min
  Tmax: 30 min
  Total AUC: 2450 ng·h/mL
[2]; [5]
  Cmax: 980 ng/mL

## {5-[4-(4-diisopropylcarbamoyl-2-methoxy-phenoxy)-butoxy]-benzo[d]isoxazole-3-ylcarbamoyl}-methyl-ammonium methane sulfonic acid salt [Example 1]
Osteoclast cell
  osteoclast cells inducing the osteolysis (in words): significantly decreased
  number of osteoclast cell, Tibia Left: 5.40 ± 2.76*.^##
  number of osteoclast cell, Tibia Right: 5.30 ± 2.00*.^#
  number of osteoclast cell, femur Left: 5.10 ± 2.38*.^#
  number of osteoclast cell, femur Right: 4.90 ± 1.52*.^#
[2]; [4]
  Tmax: 30 min
  Total AUC: 5720 ng·h/mL
[2]; [5]
  Cmax: 1530 ng/mL
[2]; [6]
  Cmax: 1510 ng/mL
  Tmax: 30 min
  Total AUC: 11080 ng·h/mL

## COc1cc(C(=O)N(C(C)C)C(C)C)ccc1OCCCCOc1ccc2onc(NC(=O)[C@H](C)N)c2c1.CS(=O)(=O)O [Example 2, (1S)-1-{5-[4-(4-diisopropylcarbamoyl-2-methoxy-phenoxy)-butoxy]-benzo[d]isoxazole-3-ylcarbamoyl)-ethyl-ammonium methane sulfonic acid salt]
Osteoclast cell
  osteoclast cells inducing the osteolysis (in words): significantly decreased
  number of osteoclast cell, Tibia Left: 4.50 ± 1.60*.^#
  number of osteoclast cell, Tibia Right: 5.63 ± 1.30*.^#
  number of osteoclast cell, femur Left: 4.50 ± 1.69*.^#
  number of osteoclast cell, femur Right: 5.00 ± 1.51*.^##
[1]; [7]
  area ratio of trabecular bone compared to the control group (in words): excellently increased
  therapeutic value (area ratio of the trabecular bone) compared with the compound of formula 2 (in words): more distinguished therapeutic value than the compound of formula 2
[1]; [8]
  area ratio of trabecular bone, Femur Left: 41.95 ± 8.78 volume %
  area ratio of trabecular bone, Tibia Left: 40.12 ± 7.20**.^# volume %
  area ratio of trabecular bone, Tibia Right: 35.58 ± 9.55*.^## volume %
[1]; PEG 100 solution, intramuscular injection, same concentration as formula 2 (100 mg per kg)
  area ratio of trabecular bone, Femur Right: 33.93 ± 3.71*.^## volume %
